Read-outs that look alike come from different tables or passages of the source.

The target of data set [1] is T1, α-Glucosidase (Saccharomyces cerevisiae, UniProt P53341).
T1 construct: purchased Sigma Aldrich G0660-750UN
As to the kind of experiment: biochemical. It counts as biochemical. The procedure:
α-Glucosidase (G0660-750UN, Sigma Aldrich) and 4-Nitrophenyl α-D-glucopyranoside (PNPG, Macklin) were dissolved in phosphate buffer (pH 6.8, 100 mM), and the test compounds were dissolved in DMSO solution. The experiment was divided into blank group, control group, sample blank group, and sample group. The reagents were loaded in 96-well plates at the dose of the table (Table 8). The solution was bathed in 37 °C water for 10 min, and then enzyme solution was added. After reaction at 37 °C for 20 min, 70 μL Na2CO3 solution ([…]) was added to stop the reaction. All experiments were run in triplicate. […] Since PNPG can produce glucose and p-Nitrophenol (PNP) under the action of α-glucosidase, PNP has the greatest absorption at 405 nm. The absorbance was determined by the microplate reader, and the inhibition rate of α-glucosidase and the IC50 value of each sample were calculated according to the formula. Inhibition rate %={[(AC−AB)−(AS−ASB)]/(AC−AB)}×100% where AC is the absorbance of control group; AB is the absorbance of blank group; AS is the absorbance of sample group; ASB is the absorbance of sample blank group.

Data set [2] is described as follows: Oral toxicity to mice (Lorke's method). The following applies: both sexes, mouse, in vivo, Kunming mice, observed 14 days. The procedure:
With reference to Lorke’s method, kunming mice were used as targets to estimate the oral toxicity of each compound to mice. We select compounds 11, 17, 25, 28, and 35 at concentrations of 10, 100, and 1000 mg/kg to test their oral toxicity in the first phase, and 1600, 2900, and 5000 mg/kg at the second phase.
Experiments were performed on Kunming mice (male and female half, bw range, 25–30 g). Mice were housed in a climate and light controlled room with a 12 h light/dark cycle. Twelve hours before experiments, food was withheld, but animals had free access to drinking water. The compounds were suspended in vehicle (Tween-80, 0.2% in saline). The concentrations were adjusted to orally administrate 0.2 ml/10 g of bw. Mice were treated in two phases. In the first, intragastric doses of 10, 100 and 1000 mg/kg of bw of compounds were administered. On the second, the doses were adjusted to 1600, 2900, and 5000 mg/kg of bw of compounds. In both phases, mice were observed daily in a period of 14 days for mortality, toxic effects and/or changes in behavioural pattern. At the end of the experiments, the mice were sacrificed in a CO2 chamber.

A short description of data set [3]: DPPH free radical scavenging. The conditions noted are these: mean ± SD (n = 3). The procedure:
The effect of target compounds and vitamin C to scavenge the DPPH free radical was evaluated with the method described by Villano et al.[43] with slight modifications.
Two millilitres of different concentrations of the sample solution was added to 2.0 ml of DPPH solution (0.04 mg/mL), shaken and allowed to react at room temperature for 30 min. The absorbance value was measured at 517 nm with an ultraviolet-visible spectrophotometer. The blank reference cuvette contained absolute ethanol. All measurements were performed in triplicate. IC50 values were calculated. The percentage of DPPH radical scavenging rate of the target compound is calculated as follows: DPPH free radical scavenging effect (%)=[A0−(A1−A2)]/A0×100% where A0 is the absorbance of 2.0 ml DPPH solution +2.0 ml absolute ethanol; A1 is the absorbance of 2.0 ml DPPH solution +2.0 ml 3-arylcoumarins solution or standard; A2 is the absorbance of 2.0 ml 3-arylcoumarins solution or standard +2.0 ml absolute ethanol.

Data set [4] in a line: hydroxyl radical scavenging. The following applies: mean ± SD (n = 3), read-out: OH IC50 Value. The procedure: The ability of the target compounds and vitamin C to scavenge the hydroxyl radical was evaluated with method described by Ismaili et al.[29] with slight modifications. In test tube, 1.0 ml H2O2 solution (0.03%), 1.0 ml FeSO4 solution (2 mmol.L^−1), 1.0 ml salicylic acid solution (10 mmol.L^−1) and 1.0 ml of 3-arylcoumarins and standard water solution with different concentration (0.4–2.0 mg/mL) were mixed. Finally, 1.0 ml H2O2 solution (0.03%) was added to this mixture to start the reaction. Solutions were kept at 37 °C. After 30 min, the absorbance was measured at 510 nm against the reagent blank, where the distilled water was substituted for the H2O2 solution. The percentage of OH scavenging by target compounds and vitamin C was calculated the following equation: OH scavenging effect (%)=[A0−(A1−A2)]/A0×100% where A0 is the absorbance of 1.0 ml distilled water +1.0 ml H2O2 + 1.0 ml FeSO4 + 1.0 ml salicylic acid +1.0 ml H2O2; A1 is the absorbance of 1.0 ml 3-arylcoumarins or standard +1.0 ml H2O2 + 1.0 ml FeSO4 + 1.0 ml salicylic acid +1.0 ml H2O2; A2 is the absorbance of 1.0 ml 3-arylcoumarins or standard +1.0 ml H2O2 + 1.0 ml FeSO4 + 1.0 ml absolute absolute ethanol +1.0 ml H2O2.

In data set [5] the test system is STZ-diabetic mice. Kind of data set: Acute hypoglycemic assay in STZ-diabetic mice. The conditions noted are these: STZ-diabetics mice. It counts as in vivo. How it is done: Type II diabetes mellitus was induced in mice by a single intraperitoneal injection of freshly prepared STZ (Sigma Aldrich) dissolved in 0.1M citrate buffer, pH 4.5, in a volume of 110 mg/kg of bw. After 7 days of STZ administration, blood glucose levels of each mouse were determined. Mice with blood glucose levels higher than 11 mM were considered diabetic and were included in the study.
STZ-induced diabetic mice and normal mice were placed in single cages with wire-net floors and deprived of food for 12 h before experimentation but allowed free access to tap water throughout. The compounds (at the doses of 10, 30, and 100 mg/kg of bw) were suspended in 0.05% Tween-80 in saline solution. Glibenclamide (10 mg/kg of bw) was suspended in the same vehicle. The target compounds were freshly prepared immediately before experimentation and administered by the intragastrical route at the doses of 10 ml/kg of bw. Control mice received only the vehicle (0.05% Tween-80 in saline solution) by the same route. Blood glucose levels were measured at 0, 1.5, 3, 5, 7, and 9 h after drugs administration.

The test system of data set [6] is AGEs formation. As to the kind of experiment: In vitro inhibitory activity of AGEs formation (bovine serum albumin/glucose). Format: biochemical. The conditions noted are these: mean ± SD (n = 3). The procedure: To prepare the AGEs reaction solution, 10 mg/mL of bovine serum albumin in 50 mM PBS (pH 7.4) was added to 0.2 M glucose, and 0.02% sodium azide was added to prevent bacterial growth. The reaction mixture (3.0 ml) was then mixed with various concentrations (0.5–1000 μg/mL) of the target compounds (1.0 ml) dissolved in DMSO. After incubating at 37 °C for 14 d, the fluorescence intensity of AGE was determined by a fluorospectrophotometer (PE, USA) with excitation and emission wavelengths at 350 nm and 420 nm, respectively. All experiments were run in triplicate. Aminoguanidine hydrochloride was used as a reference compound. The inhibition rate of AGEs formation and the IC50 value of each sample were calculated according to the formula. Inhibition rate %={[(AC−AB)−(AS−ASB)]/(AC−AB)}×100% where AC is the absorbance of control group(1.0 ml glucose +1.0 ml bovine serum albumin +1.0 ml sodium azide +1.0 ml DMSO); AB is the absorbance of blank group(1.0 ml PBS +1.0 ml bovine serum albumin +1.0 ml sodium azide +1.0 ml DMSO); AS is the absorbance of sample group (1.0 ml glucose +1.0 ml bovine serum albumin +1.0 ml sodium azide +1.0 ml target compound solution or Aminoguanidine hydrochloride solution); ASB is the absorbance of sample blank group (1.0 ml PBS +1.0 ml bovine serum albumin +1.0 ml sodium azide +1.0 ml target compound solution or Aminoguanidine hydrochloride solution).

Data set [7] has as its system mice. Set-up: method as in PMID 17360155. The conditions noted are these: cited from earlier work.

T1 sequence (P53341 whole entry): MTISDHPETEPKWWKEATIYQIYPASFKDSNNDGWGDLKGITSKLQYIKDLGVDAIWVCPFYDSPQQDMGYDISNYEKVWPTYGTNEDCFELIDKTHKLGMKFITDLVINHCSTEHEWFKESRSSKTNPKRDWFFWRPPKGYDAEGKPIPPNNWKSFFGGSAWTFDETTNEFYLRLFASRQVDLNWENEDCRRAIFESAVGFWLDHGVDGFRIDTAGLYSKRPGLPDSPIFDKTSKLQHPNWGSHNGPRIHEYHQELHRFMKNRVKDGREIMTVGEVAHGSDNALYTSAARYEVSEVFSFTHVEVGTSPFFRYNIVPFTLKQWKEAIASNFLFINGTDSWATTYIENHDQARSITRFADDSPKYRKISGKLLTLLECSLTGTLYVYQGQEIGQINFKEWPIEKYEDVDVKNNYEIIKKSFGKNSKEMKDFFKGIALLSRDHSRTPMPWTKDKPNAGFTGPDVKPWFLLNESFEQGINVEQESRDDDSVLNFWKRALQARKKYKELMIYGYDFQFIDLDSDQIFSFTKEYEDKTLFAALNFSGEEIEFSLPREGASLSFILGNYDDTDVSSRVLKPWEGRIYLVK

For the compound `O=c1oc2cc(O)cc(O)c2cc1-c1ccc(O)cc1` [Compound 28, 5,7-Dihydroxy-3-(4-hydroxyphenyl)-coumarin], the “α-glucosidase inhibitory activity (in words)” value in data set [1] (in vitro) is recorded as “moderate to excellent inhibitory activity”. In addition, the half-inhibitory concentration (IC50) in data set [1] (mean ± SD (n = 3), read-out: α-Glucosidase inhibitory activity IC50 Value) was 1.37 ± 0.15 µM; in data set [3], 41.51 ± 0.18 µM; in data set [4], over 1000 µM. The compound further displayed an LD50 at 14 days in data set [2] of over 5000 mg/kg. Further, the Blood glucose concentration was found to be 15.3 ± 3.8 mM in data set [5] (10 mg/kg of bw per os, 0h); 14.8 ± 5.8 mM in data set [5] (10 mg/kg of bw per os, 1.5h); 11.4 ± 4.2 mM in data set [5] (10 mg/kg of bw per os, 3h); 8.9 ± 2.6 mM in data set [5] (10 mg/kg of bw per os, 5h); 6.4 ± 1.6 mM in data set [5] (10 mg/kg of bw per os, 7h); 7.0 ± 2.4 mM in data set [5] (10 mg/kg of bw per os, 9h). Moreover, the Blood glucose concentration in data set [5] (30 mg/kg of bw per os, 0h) is given as 18.2 ± 6.7 mM; in data set [5] (30 mg/kg of bw per os, 1.5h) it was 14.9 ± 6.6 mM; in data set [5] (30 mg/kg of bw per os, 3h) it was 13.5 ± 6.1 mM; in data set [5] (30 mg/kg of bw per os, 5h), 12.7 ± 6.7 mM; in data set [5] (30 mg/kg of bw per os, 7h), 10.3 ± 5.6 mM; in data set [5] (30 mg/kg of bw per os, 9h), 7.3 ± 4.5 mM. The Blood glucose concentration in data set [5] (100 mg/kg of bw per os, 0h) is 18.2 ± 4.1 mM; in data set [5] (100 mg/kg of bw per os, 1.5h) it was 17.3 ± 6.7 mM; in data set [5] (100 mg/kg of bw per os, 3h), 13.0 ± 6.6 mM; in data set [5] (100 mg/kg of bw per os, 5h), 11.0 ± 6.4 mM; in data set [5] (100 mg/kg of bw per os, 7h), 11.8 ± 6.0 mM; in data set [5] (100 mg/kg of bw per os, 9h), 10.2 ± 4.6 mM. Besides, the “% Variation of glycemia” value in data set [5] (10 mg/kg of bw per os, 1.5h) is “(−3.27) %”; in data set [5] (10 mg/kg of bw per os, 3h), “(−25.49) %”; in data set [5] (10 mg/kg of bw per os, 5h) it was “(−41.83) %”; in data set [5] (10 mg/kg of bw per os, 7h), “(−58.17) %”; in data set [5] (10 mg/kg of bw per os, 9h), “(−54.25) %”; in data set [5] (30 mg/kg of bw per os, 1.5h), “(−18.13) %”. Besides, the “% Variation of glycemia” value in data set [5] (30 mg/kg of bw per os, 3h) is recorded as “(−25.82) %”; in data set [5] (30 mg/kg of bw per os, 5h) it was “(−30.22) %”; in data set [5] (30 mg/kg of bw per os, 7h), “(−43.41) %”; in data set [5] (30 mg/kg of bw per os, 9h) it was “(−59.89) %”; in data set [5] (100 mg/kg of bw per os, 1.5h), “(−4.95) %”; in data set [5] (100 mg/kg of bw per os, 3h) it was “(−28.57) %”. For the same compound, the “% Variation of glycemia” value in data set [5] (100 mg/kg of bw per os, 5h) is “(−39.56) %”; in data set [5] (100 mg/kg of bw per os, 7h), “(−35.17) %”; in data set [5] (100 mg/kg of bw per os, 9h), “(−43.96) %”.

Regarding `CCN(CC)c1ccc2cc(-c3ccc(O)cc3)c(=O)oc2c1` [Compound 41, 7-Diethylamino-3-(4-hydroxyphenyl)-coumarin], the melting point lay within 190.2 to 191.8 °C. In data set [1], this compound had an IC50 of 13.4 ± 0.65 µM. The compound further returned an IC50 in data set [6] of over 1000 µM. Moreover, in data set [3], the IC50 was over 1000 µM. Moreover, the half-maximal inhibitory concentration (IC50) in data set [4] was over 1000 µM.

Turning to `COc1ccc(-c2cc3c(O)cc(O)cc3oc2=O)cc1OC` [Compound 42, 5,7-Dihydroxy-3-(3,4-dimethoxyphenyl)-coumarin], the melting point is 322 to 324.1 °C. The compound also gave a half-inhibitory concentration (IC50) in data set [1] of 39.1 ± 0.76 µM. 18.3 ± 0.38 µM corresponded to half-maximal inhibition in data set [6] (IC50). In data set [3], this compound returned an IC50 of 5.89 ± 0.06 µM. Besides, the IC50 in data set [4] is over 1000 µM.

For the compound `COc1ccc(-c2cc3ccc(O)c(O)c3oc2=O)cc1OC` [Compound 43, 7,8-Dihydroxy-3-(3,4-dimethoxyphenyl)-coumarin], the melting point lay in the range of 290.5 to 291.9 °C. Besides, the IC50 in data set [1] was over 1000 µM. Also, in data set [6], inhibition was half-maximal at 25.2 ± 1.72 µM (IC50). This compound also showed a 50% inhibitory concentration (IC50) in data set [3] of 4.24 ± 0.06 µM. In addition, in data set [4], the IC50 stood at 887 ± 15.8 µM.

`O=C1O[C@H]([C@@H](O)CO)C(O)=C1O` [Vitaminc, Vitamin C, reference compound]: the “protection against STZ-induced elevation in the plasma glucose levels” value in data set [7] was “only a marginal to moderate protection”. Further, the 50% inhibitory concentration (IC50) in data set [3] is 19.6 ± 1.88 µM; in data set [3] (listed as Vitamin C) it was 34.9 ± 0.85 µM; in data set [4], 788 ± 15.7 µM.

In the case of `NCCS(=O)(=O)O` [taurine], in data set [7], the “protection against STZ-induced elevation in the plasma glucose levels” value is “only a marginal to moderate protection”.

Source of the values: publication PMC6211316, “Synthesis and biological evaluation of 3-arylcoumarin derivatives as potential anti-diabetic agents” (Journal of Enzyme Inhibition and Medicinal Chemistry, 2018).
